Results taken from patent US9340590B2 (priority 2011, dated 2016).
Positions of bridges follow the written chain, without caps; N, C: chain ends. Residues, ends and D or L forms follow the SMILES beside them.

How the values were obtained:
Assay in all cases: cell-based
hNav1.5 = hNav1.5 (Homo sapiens, UniProt Q14524); details: IonWorks Quattro; clamped to −110 mV, depolarized to −10 mV, 5 min after compound; n=2; read-out: IWQ Use Nav1.5
hNav1.7 = hNav1.7 (Homo sapiens, UniProt Q15858); assay type: cell-based; details: IonWorks Quattro; clamped to −110 mV, depolarized to −10 mV, 5 min after compound; n=2; read-out: IWQ Use Nav1.7
hNav1.3 = hNav1.3 (Homo sapiens, UniProt Q9NY46); details: IonWorks Quattro; clamped to −110 mV, depolarized to −10 mV, 5 min after compound; n=2; read-out: IWQ Use Nav1.3
Chain of hNav1.3 (Q9NY46 whole entry, looked up): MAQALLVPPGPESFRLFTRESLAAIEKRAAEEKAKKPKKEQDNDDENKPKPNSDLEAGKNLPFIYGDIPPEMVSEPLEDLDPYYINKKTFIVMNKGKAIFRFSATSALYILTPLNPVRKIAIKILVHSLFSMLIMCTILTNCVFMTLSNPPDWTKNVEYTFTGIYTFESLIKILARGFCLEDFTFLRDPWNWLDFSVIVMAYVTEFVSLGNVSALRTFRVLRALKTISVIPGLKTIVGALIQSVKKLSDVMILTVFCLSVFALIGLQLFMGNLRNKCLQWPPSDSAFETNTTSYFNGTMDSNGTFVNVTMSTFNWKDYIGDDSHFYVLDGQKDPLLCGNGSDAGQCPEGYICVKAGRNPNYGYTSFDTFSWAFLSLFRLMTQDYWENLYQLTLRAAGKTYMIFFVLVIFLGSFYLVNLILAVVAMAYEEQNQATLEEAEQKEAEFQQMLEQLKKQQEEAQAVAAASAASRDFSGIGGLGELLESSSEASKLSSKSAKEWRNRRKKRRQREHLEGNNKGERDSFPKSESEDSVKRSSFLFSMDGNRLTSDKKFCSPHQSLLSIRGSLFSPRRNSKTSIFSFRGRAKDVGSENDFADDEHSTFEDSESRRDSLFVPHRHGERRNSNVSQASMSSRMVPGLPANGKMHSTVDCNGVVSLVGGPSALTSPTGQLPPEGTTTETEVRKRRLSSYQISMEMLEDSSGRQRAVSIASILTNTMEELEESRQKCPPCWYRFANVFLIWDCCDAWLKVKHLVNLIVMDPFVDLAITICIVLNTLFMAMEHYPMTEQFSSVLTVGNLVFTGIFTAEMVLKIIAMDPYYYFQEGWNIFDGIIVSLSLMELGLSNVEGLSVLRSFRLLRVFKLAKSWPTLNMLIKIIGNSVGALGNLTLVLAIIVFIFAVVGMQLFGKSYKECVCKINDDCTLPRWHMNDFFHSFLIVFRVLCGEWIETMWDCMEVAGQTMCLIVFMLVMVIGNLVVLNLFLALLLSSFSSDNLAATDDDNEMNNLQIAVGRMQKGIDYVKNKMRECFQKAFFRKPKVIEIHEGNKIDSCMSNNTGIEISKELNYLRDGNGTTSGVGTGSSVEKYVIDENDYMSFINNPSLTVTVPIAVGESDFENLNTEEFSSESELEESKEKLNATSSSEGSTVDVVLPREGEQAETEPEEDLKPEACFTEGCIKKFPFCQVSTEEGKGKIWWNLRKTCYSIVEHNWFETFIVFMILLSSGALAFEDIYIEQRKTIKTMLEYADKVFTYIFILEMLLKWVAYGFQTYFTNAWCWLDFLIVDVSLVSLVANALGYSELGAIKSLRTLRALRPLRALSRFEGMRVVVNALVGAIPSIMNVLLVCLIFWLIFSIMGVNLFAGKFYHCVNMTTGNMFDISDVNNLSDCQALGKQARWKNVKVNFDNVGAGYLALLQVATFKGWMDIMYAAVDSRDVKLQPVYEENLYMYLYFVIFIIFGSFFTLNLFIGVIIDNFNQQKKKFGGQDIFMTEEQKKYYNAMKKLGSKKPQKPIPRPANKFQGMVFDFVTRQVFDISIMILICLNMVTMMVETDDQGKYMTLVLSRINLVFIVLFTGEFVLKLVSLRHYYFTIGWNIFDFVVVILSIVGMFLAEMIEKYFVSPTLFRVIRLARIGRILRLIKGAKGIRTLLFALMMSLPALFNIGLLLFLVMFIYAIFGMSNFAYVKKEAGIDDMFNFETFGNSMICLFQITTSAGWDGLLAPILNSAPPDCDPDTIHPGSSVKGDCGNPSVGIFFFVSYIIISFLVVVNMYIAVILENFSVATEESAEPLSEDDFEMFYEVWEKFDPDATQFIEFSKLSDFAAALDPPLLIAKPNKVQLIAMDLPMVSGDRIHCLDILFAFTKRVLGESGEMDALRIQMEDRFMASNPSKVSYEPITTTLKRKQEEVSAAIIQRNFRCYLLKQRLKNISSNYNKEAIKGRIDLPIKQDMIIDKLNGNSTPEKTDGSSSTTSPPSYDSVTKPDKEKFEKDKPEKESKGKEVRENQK

Chain of hNav1.5 (Q14524 whole entry, looked up): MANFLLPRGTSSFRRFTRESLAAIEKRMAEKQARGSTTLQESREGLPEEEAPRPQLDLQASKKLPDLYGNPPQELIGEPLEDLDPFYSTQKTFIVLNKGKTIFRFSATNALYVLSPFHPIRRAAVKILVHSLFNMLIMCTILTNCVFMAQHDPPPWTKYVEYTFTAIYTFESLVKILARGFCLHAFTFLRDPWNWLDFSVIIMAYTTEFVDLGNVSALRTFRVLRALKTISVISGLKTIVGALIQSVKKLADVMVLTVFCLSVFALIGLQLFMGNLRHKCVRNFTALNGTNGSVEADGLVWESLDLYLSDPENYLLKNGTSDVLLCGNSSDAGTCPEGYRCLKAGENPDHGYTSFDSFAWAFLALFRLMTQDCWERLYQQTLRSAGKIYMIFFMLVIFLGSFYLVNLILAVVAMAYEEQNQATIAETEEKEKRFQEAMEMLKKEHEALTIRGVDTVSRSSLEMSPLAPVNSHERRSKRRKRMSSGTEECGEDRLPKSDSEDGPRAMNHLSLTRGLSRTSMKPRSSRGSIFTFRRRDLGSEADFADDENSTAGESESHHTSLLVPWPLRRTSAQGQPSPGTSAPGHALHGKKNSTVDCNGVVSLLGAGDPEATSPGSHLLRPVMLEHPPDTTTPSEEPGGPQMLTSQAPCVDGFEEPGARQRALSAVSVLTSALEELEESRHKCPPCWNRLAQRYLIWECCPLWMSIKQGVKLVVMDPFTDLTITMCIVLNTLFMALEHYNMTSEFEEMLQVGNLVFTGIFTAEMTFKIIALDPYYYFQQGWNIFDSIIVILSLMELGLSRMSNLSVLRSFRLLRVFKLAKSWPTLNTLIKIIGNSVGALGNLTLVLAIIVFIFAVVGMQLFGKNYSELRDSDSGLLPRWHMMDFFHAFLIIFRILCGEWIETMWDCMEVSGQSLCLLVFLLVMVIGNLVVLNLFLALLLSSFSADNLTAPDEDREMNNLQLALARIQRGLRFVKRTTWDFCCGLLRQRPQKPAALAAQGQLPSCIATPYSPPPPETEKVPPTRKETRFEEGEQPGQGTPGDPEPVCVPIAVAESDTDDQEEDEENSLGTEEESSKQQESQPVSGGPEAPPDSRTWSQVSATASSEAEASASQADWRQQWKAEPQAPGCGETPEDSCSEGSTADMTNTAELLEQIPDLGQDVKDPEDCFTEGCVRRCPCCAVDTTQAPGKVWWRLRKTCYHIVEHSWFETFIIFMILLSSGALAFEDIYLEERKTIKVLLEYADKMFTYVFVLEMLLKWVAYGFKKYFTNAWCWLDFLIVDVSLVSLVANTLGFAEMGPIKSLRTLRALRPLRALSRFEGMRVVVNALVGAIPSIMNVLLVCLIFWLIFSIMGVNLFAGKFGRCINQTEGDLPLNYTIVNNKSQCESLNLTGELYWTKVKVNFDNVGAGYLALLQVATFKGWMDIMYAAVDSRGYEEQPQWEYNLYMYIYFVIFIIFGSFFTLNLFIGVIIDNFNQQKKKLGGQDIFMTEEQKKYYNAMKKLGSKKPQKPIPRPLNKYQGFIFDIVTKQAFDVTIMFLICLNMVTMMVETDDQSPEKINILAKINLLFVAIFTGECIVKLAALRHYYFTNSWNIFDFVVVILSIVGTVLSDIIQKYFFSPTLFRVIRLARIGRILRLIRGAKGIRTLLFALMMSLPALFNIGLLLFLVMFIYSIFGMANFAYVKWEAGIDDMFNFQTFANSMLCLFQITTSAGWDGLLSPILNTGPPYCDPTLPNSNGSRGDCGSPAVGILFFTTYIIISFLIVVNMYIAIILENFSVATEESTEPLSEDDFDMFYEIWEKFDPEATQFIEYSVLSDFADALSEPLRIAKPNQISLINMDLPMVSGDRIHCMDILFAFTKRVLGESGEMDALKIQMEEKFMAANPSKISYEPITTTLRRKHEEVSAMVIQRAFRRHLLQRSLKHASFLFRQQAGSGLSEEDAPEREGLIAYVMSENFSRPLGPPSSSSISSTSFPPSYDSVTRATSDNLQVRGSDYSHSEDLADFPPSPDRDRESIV

In the case of `CC[C@H](C)[C@@H]1NC(=O)[C@@H]2CSSC[C@@H]3NC(=O)[C@H](C(C)C)NC(=O)[C@H](CC(C)C)NC(=O)[C@H](CC(N)=O)NC(=O)[C@@H]4CCCN4C(=O)[C@H](CCCNC(=N)N)NC(=O)[C@H](CSSC[C@H](NC(=O)[C@@H](N)CC(=O)O)C(=O)N[C@@H](CC(C)C)C(=O)NCC(=O)N[C@@H](Cc4ccccn4)C(=O)N[C@@H](CCSC)C(=O)N[C@@H](CCCNC(=N)N)C(=O)N[C@@H](CCCCN)C(=O)N2)NC(=O)[C@H](CSSC[C@@H](C(=O)N[C@@H](CCCCN)C(=O)N[C@@H](Cc2ccc(O)cc2)C(=O)N[C@H](C(=O)N[C@@H](Cc2ccccc2)C(N)=O)C(C)C)NC(=O)[C@H](Cc2c[nH]c4ccccc24)NC(=O)[C@H](CCCCN)NC(=O)[C@H](Cc2c[nH]cn2)NC(=O)[C@H]([C@@H](C)O)NC(=O)[C@H](CCCNC(=N)N)NC(=O)[C@H](CO)NC3=O)NC(=O)[C@H](CCCCN)NC(=O)[C@H](CC(=O)O)NC(=O)[C@H](CC(N)=O)NC(=O)[C@H](CC(=O)O)NC(=O)[C@@H]2CCCN2C1=O` [SEQ ID NO: 277], the IC50 (hNav1.5) is reported as 9.25 µM, the IC50 (hNav1.7) is reported as 2.07 µM and the IC50 (hNav1.3) is reported as 4.58 µM.

With `CC[C@H](C)[C@@H]1NC(=O)[C@@H]2CSSC[C@@H]3NC(=O)[C@H](C(C)C)NC(=O)[C@H](CC(C)C)NC(=O)[C@H](CC(N)=O)NC(=O)[C@@H]4CCCN4C(=O)[C@H](CCCNC(=N)N)NC(=O)[C@H](CSSC[C@H](NC(=O)[C@@H](N)CC(=O)O)C(=O)N[C@@H](CC(C)C)C(=O)NCC(=O)N[C@@H](Cc4ccccc4)C(=O)N[C@@H](CC(N)=O)C(=O)N[C@@H](CCCNC(=N)N)C(=O)N[C@@H](CCCCN)C(=O)N2)NC(=O)[C@H](CSSC[C@@H](C(=O)N[C@@H](CCCCN)C(=O)N[C@@H](Cc2ccc(O)cc2)C(=O)N[C@H](C(=O)N[C@@H](Cc2ccccc2)C(N)=O)C(C)C)NC(=O)[C@H](Cc2c[nH]c4ccccc24)NC(=O)[C@H](CCCCN)NC(=O)[C@H](Cc2c[nH]cn2)NC(=O)[C@H]([C@@H](C)O)NC(=O)[C@H](CCCNC(=N)N)NC(=O)[C@H](CO)NC3=O)NC(=O)[C@H](CCCCN)NC(=O)[C@H](CC(=O)O)NC(=O)[C@H](CC(N)=O)NC(=O)[C@H](CC(=O)O)NC(=O)[C@@H]2CCCN2C1=O` [SEQ ID NO: 278] (H-DCLGFNRKCIPDNDKCCRPNLVCSRTHKWCKYVF-NH2; disulfide 2-17, 9-23, 16-30) the IC50 (hNav1.5) was 10.3 µM, the IC50 (hNav1.7) was 6.89 µM and the IC50 (hNav1.3) was 6.28 µM.

In the case of `CC[C@H](C)[C@@H]1NC(=O)[C@@H]2CSSC[C@@H]3NC(=O)[C@H](C(C)C)NC(=O)[C@H](CC(C)C)NC(=O)[C@H](CC(N)=O)NC(=O)[C@@H]4CCCN4C(=O)[C@H](CCCNC(=N)N)NC(=O)[C@H](CSSC[C@H](NC(=O)[C@@H](N)CC(=O)O)C(=O)N[C@@H](CC(C)C)C(=O)NCC(=O)N[C@@H](Cc4ccccc4)C(=O)N[C@@H](CCC(N)=O)C(=O)N[C@@H](CCCNC(=N)N)C(=O)N[C@@H](CCCCN)C(=O)N2)NC(=O)[C@H](CSSC[C@@H](C(=O)N[C@@H](CCCCN)C(=O)N[C@@H](Cc2ccc(O)cc2)C(=O)N[C@H](C(=O)N[C@@H](Cc2ccccc2)C(N)=O)C(C)C)NC(=O)[C@H](Cc2c[nH]c4ccccc24)NC(=O)[C@H](CCCCN)NC(=O)[C@H](Cc2c[nH]cn2)NC(=O)[C@H]([C@@H](C)O)NC(=O)[C@H](CCCNC(=N)N)NC(=O)[C@H](CO)NC3=O)NC(=O)[C@H](CCCCN)NC(=O)[C@H](CC(=O)O)NC(=O)[C@H](CC(N)=O)NC(=O)[C@H](CC(=O)O)NC(=O)[C@@H]2CCCN2C1=O` [SEQ ID NO: 279] (H-DCLGFQRKCIPDNDKCCRPNLVCSRTHKWCKYVF-NH2; disulfide 2-17, 9-23, 16-30), the IC50 (hNav1.5) is reported as 7.57 µM, the IC50 (hNav1.7) is reported as 8.62 µM and the IC50 (hNav1.3) is reported as 5.96 µM.

For `CC[C@H](C)[C@@H]1NC(=O)[C@@H]2CSSC[C@@H]3NC(=O)[C@H](C(C)C)NC(=O)[C@H](CC(C)C)NC(=O)[C@H](CC(N)=O)NC(=O)[C@@H]4CCCN4C(=O)[C@H](CCCNC(=N)N)NC(=O)[C@H](CSSC[C@H](NC(=O)[C@@H](N)CC(=O)O)C(=O)N[C@@H](CC(C)C)C(=O)NCC(=O)N[C@@H](Cc4ccccc4)C(=O)NCC(=O)N[C@@H](CCCNC(=N)N)C(=O)N[C@@H](CCCCN)C(=O)N2)NC(=O)[C@H](CSSC[C@@H](C(=O)N[C@@H](CCCCN)C(=O)N[C@@H](Cc2ccc(O)cc2)C(=O)N[C@H](C(=O)N[C@@H](Cc2ccccc2)C(N)=O)C(C)C)NC(=O)[C@H](Cc2c[nH]c4ccccc24)NC(=O)[C@H](CCCCN)NC(=O)[C@H](Cc2c[nH]cn2)NC(=O)[C@H]([C@@H](C)O)NC(=O)[C@H](CCCNC(=N)N)NC(=O)[C@H](CO)NC3=O)NC(=O)[C@H](CCCCN)NC(=O)[C@H](CC(=O)O)NC(=O)[C@H](CC(N)=O)NC(=O)[C@H](CC(=O)O)NC(=O)[C@@H]2CCCN2C1=O` [SEQ ID NO: 280] (H-DCLGFGRKCIPDNDKCCRPNLVCSRTHKWCKYVF-NH2; disulfide 2-17, 9-23, 16-30), the IC50 (hNav1.5) was 8.2 µM, the IC50 (hNav1.7) was 0.18 µM and the IC50 (hNav1.3) was 0.14 µM.

Compound `CC[C@H](C)[C@@H]1NC(=O)[C@@H]2CSSC[C@@H]3NC(=O)[C@H](C(C)C)NC(=O)[C@H](CC(C)C)NC(=O)[C@H](CC(N)=O)NC(=O)[C@@H]4CCCN4C(=O)[C@H](CCCNC(=N)N)NC(=O)[C@H](CSSC[C@H](NC(=O)[C@@H](N)CC(=O)O)C(=O)N[C@@H](CC(C)C)C(=O)NCC(=O)N[C@@H](Cc4ccccc4)C(=O)N[C@@H](Cc4c[nH]cn4)C(=O)N[C@@H](CCCNC(=N)N)C(=O)N[C@@H](CCCCN)C(=O)N2)NC(=O)[C@H](CSSC[C@@H](C(=O)N[C@@H](CCCCN)C(=O)N[C@@H](Cc2ccc(O)cc2)C(=O)N[C@H](C(=O)N[C@@H](Cc2ccccc2)C(N)=O)C(C)C)NC(=O)[C@H](Cc2c[nH]c4ccccc24)NC(=O)[C@H](CCCCN)NC(=O)[C@H](Cc2c[nH]cn2)NC(=O)[C@H]([C@@H](C)O)NC(=O)[C@H](CCCNC(=N)N)NC(=O)[C@H](CO)NC3=O)NC(=O)[C@H](CCCCN)NC(=O)[C@H](CC(=O)O)NC(=O)[C@H](CC(N)=O)NC(=O)[C@H](CC(=O)O)NC(=O)[C@@H]2CCCN2C1=O` [SEQ ID NO: 281] (H-DCLGFHRKCIPDNDKCCRPNLVCSRTHKWCKYVF-NH2; disulfide 2-17, 9-23, 16-30) has an IC50 (hNav1.5) of 10.1 µM, an IC50 (hNav1.7) of 4.72 µM and an IC50 (hNav1.3) of 7.77 µM.

Compound `CC[C@H](C)[C@@H]1NC(=O)[C@H](Cc2ccccc2)NC(=O)CNC(=O)[C@H](CC(C)C)NC(=O)[C@@H](NC(=O)[C@@H](N)CC(=O)O)CSSC[C@@H]2NC(=O)[C@@H]3CSSC[C@@H](C(=O)N[C@@H](CCCCN)C(=O)N[C@@H](Cc4ccc(O)cc4)C(=O)N[C@H](C(=O)N[C@@H](Cc4ccccc4)C(N)=O)C(C)C)NC(=O)[C@H](Cc4c[nH]c5ccccc45)NC(=O)[C@H](CCCCN)NC(=O)[C@H](Cc4c[nH]cn4)NC(=O)[C@H]([C@@H](C)O)NC(=O)[C@H](CCCNC(=N)N)NC(=O)[C@H](CO)NC(=O)[C@H](CSSC[C@H](NC(=O)[C@H](CCCCN)NC(=O)[C@H](CCCNC(=N)N)NC1=O)C(=O)N[C@@H]([C@@H](C)CC)C(=O)N1CCC[C@H]1C(=O)N[C@@H](CC(=O)O)C(=O)N[C@@H](CC(N)=O)C(=O)N[C@@H](CC(=O)O)C(=O)N[C@@H](CCCCN)C(=O)N3)NC(=O)[C@H](C(C)C)NC(=O)[C@H](CC(C)C)NC(=O)[C@H](CC(N)=O)NC(=O)[C@@H]1CCCN1C(=O)[C@H](CCCNC(=N)N)NC2=O` [SEQ ID NO: 282] (H-DCLGFIRKCIPDNDKCCRPNLVCSRTHKWCKYVF-NH2; disulfide 2-17, 9-23, 16-30) has an IC50 (hNav1.5) of 8.63 µM, an IC50 (hNav1.7) of 0.07 µM and an IC50 (hNav1.3) of 0.06 µM.

Work on `CC[C@H](C)[C@@H]1NC(=O)[C@@H]2CSSC[C@@H]3NC(=O)[C@H](C(C)C)NC(=O)[C@H](CC(C)C)NC(=O)[C@H](CC(N)=O)NC(=O)[C@@H]4CCCN4C(=O)[C@H](CCCNC(=N)N)NC(=O)[C@H](CSSC[C@H](NC(=O)[C@@H](N)CC(=O)O)C(=O)N[C@@H](CC(C)C)C(=O)NCC(=O)N[C@@H](Cc4ccccc4)C(=O)N[C@@H](CO)C(=O)N[C@@H](CCCNC(=N)N)C(=O)N[C@@H](CCCCN)C(=O)N2)NC(=O)[C@H](CSSC[C@@H](C(=O)N[C@@H](CCCCN)C(=O)N[C@@H](Cc2ccc(O)cc2)C(=O)N[C@H](C(=O)N[C@@H](Cc2ccccc2)C(N)=O)C(C)C)NC(=O)[C@H](Cc2c[nH]c4ccccc24)NC(=O)[C@H](CCCCN)NC(=O)[C@H](Cc2c[nH]cn2)NC(=O)[C@H]([C@@H](C)O)NC(=O)[C@H](CCCNC(=N)N)NC(=O)[C@H](CO)NC3=O)NC(=O)[C@H](CCCCN)NC(=O)[C@H](CC(=O)O)NC(=O)[C@H](CC(N)=O)NC(=O)[C@H](CC(=O)O)NC(=O)[C@@H]2CCCN2C1=O` [SEQ ID NO: 284] (H-DCLGFSRKCIPDNDKCCRPNLVCSRTHKWCKYVF-NH2; disulfide 2-17, 9-23, 16-30) yielded an IC50 (hNav1.5) of 16.9 µM, an IC50 (hNav1.7) of 1.02 µM and an IC50 (hNav1.3) of 0.71 µM.

In the case of `CC[C@H](C)[C@@H]1NC(=O)[C@@H]2CSSC[C@@H]3NC(=O)[C@H](C(C)C)NC(=O)[C@H](CC(C)C)NC(=O)[C@H](CC(N)=O)NC(=O)[C@@H]4CCCN4C(=O)[C@H](CCCNC(=N)N)NC(=O)[C@H](CSSC[C@H](NC(=O)[C@@H](N)CC(=O)O)C(=O)N[C@@H](CC(C)C)C(=O)NCC(=O)N[C@@H](Cc4ccccc4)C(=O)N[C@@H]([C@@H](C)O)C(=O)N[C@@H](CCCNC(=N)N)C(=O)N[C@@H](CCCCN)C(=O)N2)NC(=O)[C@H](CSSC[C@@H](C(=O)N[C@@H](CCCCN)C(=O)N[C@@H](Cc2ccc(O)cc2)C(=O)N[C@H](C(=O)N[C@@H](Cc2ccccc2)C(N)=O)C(C)C)NC(=O)[C@H](Cc2c[nH]c4ccccc24)NC(=O)[C@H](CCCCN)NC(=O)[C@H](Cc2c[nH]cn2)NC(=O)[C@H]([C@@H](C)O)NC(=O)[C@H](CCCNC(=N)N)NC(=O)[C@H](CO)NC3=O)NC(=O)[C@H](CCCCN)NC(=O)[C@H](CC(=O)O)NC(=O)[C@H](CC(N)=O)NC(=O)[C@H](CC(=O)O)NC(=O)[C@@H]2CCCN2C1=O` [SEQ ID NO: 285] (H-DCLGFTRKCIPDNDKCCRPNLVCSRTHKWCKYVF-NH2; disulfide 2-17, 9-23, 16-30), the IC50 (hNav1.5) is reported as 18.7 µM, the IC50 (hNav1.7) is reported as 0.59 µM and the IC50 (hNav1.3) is reported as 0.28 µM.
